Where two headings read alike, the source gives them in different places.
Tests used:
Factor XIa = Factor XIa (Homo sapiens, UniProt P03951); experiment: Factor XIa inhibition assay (FLINT) utilizing a fluorophore-quencher pair peptide substrate 5Fam-[…]-K5Tamra; type: biochemical; settings: kinetic (KIN) reads, read-out: FXIa KIN Inh IC50
How it was run: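 Compounds were tested as 11-point 3-fold dilutions from 100 nM (2% DMSO). They were preincubated 30 min with FXIa in 50 mM Tris pH 7.5, 5 mM CaCl2, then 15 μM fluorophore-quencher peptide was added. Cleavage was followed at 485/520 nm over 30 min, and IC50 was derived by 4-parameter logistic fit.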

human plasma kallikrein = human plasma kallikrein (Homo sapiens, UniProt P03952); experiment: Kallikrein inhibition assay (FLINT) utilizing a quenched AMC peptide substrate Z-Gly-Pro-Arg-AMC; type: biochemical; settings: kinetic (KIN) reads, read-out: Kallikrein KIN Inh IC50
human plasma kallikrein, sequence (P03952 391-638 limits assumed): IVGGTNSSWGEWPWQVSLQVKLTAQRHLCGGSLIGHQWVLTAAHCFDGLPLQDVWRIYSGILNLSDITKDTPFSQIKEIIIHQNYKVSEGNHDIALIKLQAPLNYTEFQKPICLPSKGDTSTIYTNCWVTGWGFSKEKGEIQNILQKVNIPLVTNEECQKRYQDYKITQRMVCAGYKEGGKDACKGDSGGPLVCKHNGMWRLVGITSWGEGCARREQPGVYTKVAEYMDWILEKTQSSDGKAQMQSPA
human plasma kallikrein, sequence (P03952 20-390 partner limits assumed): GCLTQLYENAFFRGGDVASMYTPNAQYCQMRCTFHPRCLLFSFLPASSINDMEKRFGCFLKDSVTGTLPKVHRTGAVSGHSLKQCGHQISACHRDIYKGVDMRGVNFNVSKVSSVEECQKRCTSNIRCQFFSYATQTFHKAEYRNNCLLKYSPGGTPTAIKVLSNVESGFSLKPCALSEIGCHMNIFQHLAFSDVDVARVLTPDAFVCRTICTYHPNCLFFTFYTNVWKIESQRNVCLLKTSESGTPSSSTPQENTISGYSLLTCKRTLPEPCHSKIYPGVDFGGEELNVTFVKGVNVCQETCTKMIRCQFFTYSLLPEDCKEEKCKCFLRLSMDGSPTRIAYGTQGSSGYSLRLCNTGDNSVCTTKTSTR
How it was run: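 IC50 from a 4-parameter logistic fit of % inhibition from 11 concentrations (3-fold, top 1 μM, 2% DMSO). Compound pre-incubated 30 min with 2 nM enzyme in Tris pH 7.5, NaCl, CaCl2, BSA, CHAPS, then 50 μM AMC peptide substrate added. Fluorescence (340/440 nm) followed every 5 min for 30 min at room temperature.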

Factor XIa, sequence (P03951 388-625 limits assumed): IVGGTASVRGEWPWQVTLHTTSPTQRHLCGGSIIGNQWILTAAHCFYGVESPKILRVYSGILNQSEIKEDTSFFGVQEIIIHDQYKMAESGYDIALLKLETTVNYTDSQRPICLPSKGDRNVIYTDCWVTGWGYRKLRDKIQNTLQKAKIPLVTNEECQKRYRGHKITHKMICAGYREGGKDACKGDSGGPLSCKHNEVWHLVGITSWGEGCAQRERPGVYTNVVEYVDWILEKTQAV
Factor XIa, sequence (P03951 19-387 partner limits assumed): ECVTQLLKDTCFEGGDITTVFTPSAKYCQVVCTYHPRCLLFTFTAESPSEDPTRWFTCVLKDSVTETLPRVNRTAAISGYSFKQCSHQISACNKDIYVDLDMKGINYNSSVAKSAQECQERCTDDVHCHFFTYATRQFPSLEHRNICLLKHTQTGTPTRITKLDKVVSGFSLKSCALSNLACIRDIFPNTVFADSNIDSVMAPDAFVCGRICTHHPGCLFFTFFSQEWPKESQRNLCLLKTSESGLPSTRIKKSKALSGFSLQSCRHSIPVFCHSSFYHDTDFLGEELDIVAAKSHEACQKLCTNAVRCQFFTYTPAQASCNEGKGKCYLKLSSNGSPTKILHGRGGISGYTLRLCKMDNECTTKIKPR

Structure (SMILES)	IC50 (Factor XIa; values in nM) [nM]	IC50 (human plasma kallikrein; values in nM) [nM]	IC50 (Factor XIa; unit μM) [nM]	IC50 (human plasma kallikrein; unit μM) [nM]
CC(O)c1nccc(-c2cnc([C@H]3CC4(CC4)c4cc(-c5c(-n6cnnn6)ccc(Cl)c5F)cc(=O)n43)[nH]2)c1F (single isomer, unassigned) [Example 6, (3′R)-7′-(3-Chloro-2-fluoro-6-(1H-tetrazol-1-yl)phenyl)-3′-(5-(3-fluoro-2-(1-hydroxyethyl)pyridin-4-yl)-1H-imidazol-2-yl)-2′,3′-dihydro-5′H-spiro[cyclopropane-1,1′-indolizin]-5′-one]	17	72.8		
C[C@H]1C[C@@H](c2ncc(-c3ccc4nn(C)cc4c3)[nH]2)n2c1cc(-c1c(-n3cnnn3)ccc(Cl)c1F)cc2=O (stereo in doubt) [Example 46, (1*S,3*S)-7-(3-Chloro-2-fluoro-6-(1H-tetrazol-1-yl)phenyl)-1-methyl-3-(5-(2-methyl-2H-indazol-5-yl)-1H-imidazol-2-yl)-2,3-dihydroindolizin-5(1H)-one]	431	488		
C[C@@H]1CC(c2ncc(-c3cnc(N)c(F)c3)[nH]2)n2c1cc(-c1c(-n3cnnn3)ccc(Cl)c1F)cc2=O (stereo in doubt) [Example 60, (1*R)-3-(5-(6-Amino-5-fluoropyridin-3-yl)-1H-imidazol-2-yl)-7-(3-chloro-2-fluoro-6-(1H-tetrazol-1-yl)phenyl)-1-methyl-2,3-dihydroindolizin-5(1H)-one]	47.8	185		
CC(=O)Nc1ncc(-c2cnc(C3CC4(CC4)c4cc(-c5c(-n6cnnn6)ccc(Cl)c5F)cc(=O)n43)[nH]2)s1 (centres unmarked) [Example 22]	253	294		
C[C@H]1C[C@@H](c2ncc(-c3ccc(N)nc3F)[nH]2)n2c1cc(-c1cc(Cl)ccc1-n1cnnn1)cc2=O [Example 29, (1S,3S)-3-[5-(6-amino-2-fluoro-3-pyridyl)-1H-imidazol-2-yl]-7-[5-chloro-2-(tetrazol-1-yl)phenyl]-1-methyl-2,3-dihydro-1H-indolizin-5-one]	0.5	39.5		
O=c1cc(-c2c(-n3cnnn3)ccc(Cl)c2F)cc2n1[C@@H](c1ncc(-c3ccnc(CO)c3F)[nH]1)CC21CC1 (single isomer, unassigned) [Example 8]	> 100			> 1000
CNC(=O)c1cc(-c2cnc([C@@H]3C[C@H](C)c4cc(-c5c(-n6cnnn6)ccc(Cl)c5F)cc(=O)n43)[nH]2)ccn1 [Example 13, 4-(2-((1S,3S)-7-(3-Chloro-2-fluoro-6-(1H-tetrazol-1-yl)phenyl)-1-methyl-5-oxo-1,2,3,5-tetrahydroindolizin-3-yl)-1H-imidazol-5-yl)-N-methylpicolinamide]	12.7	36.9		
C[C@H]1C[C@H](c2ncc(-c3ccnc(C#N)c3)[nH]2)n2c1cc(-c1c(-n3cnnn3)ccc(Cl)c1F)cc2=O (relative stereo) [Example 30, 4-(2-((1S,3R)-7-(3-Chloro-2-fluoro-6-(1H-tetrazol-1-yl)phenyl)-1-methyl-5-oxo-1,2,3,5-tetrahydroindolizin-3-yl)-1H-imidazol-5-yl)picolinonitrile]	873			1200
C[C@H]1C[C@@H](c2ncc(-c3cnc(F)c(N)c3)[nH]2)n2c1cc(-c1c(-n3cnnn3)ccc(Cl)c1F)cc2=O [Example 21, (1S,3S)-3-(5-(5-Amino-6-fluoropyridin-3-yl)-1H-imidazol-2-yl)-7-(3-chloro-2-fluoro-6-(1H-tetrazol-1-yl)phenyl)-1-methyl-2,3-dihydroindolizin-5(1H)-one]	64.4	340		
C[C@H]1C[C@@H](c2ncc(-c3cnc(N)s3)[nH]2)n2c1cc(-c1c(-n3cnnn3)ccc(Cl)c1F)cc2=O [Example 23, (1S,3S)-3-(5-(2-Aminothiazol-5-yl)-1H-imidazol-2-yl)-7-(3-chloro-2-fluoro-6-(1H-tetrazol-1-yl)phenyl)-1-methyl-2,3-dihydroindolizin-5(1H)-one]	5	240		

Further lines, results first:

IC50 (Factor XIa; values in nM) [nM]	IC50 (human plasma kallikrein; values in nM) [nM]	IC50 (Factor XIa; unit μM) [nM]	IC50 (human plasma kallikrein; unit μM) [nM]	Structure (SMILES)
7.9	15			COC(=O)Nc1ccc(-c2cnc([C@@H]3C[C@@H](C)c4nc(-c5c(-n6cnnn6)ccc(Cl)c5F)cc(=O)n43)[nH]2)cn1 (stereo in doubt) [Example 118, Methyl (5-(2-((6*S,8*R)-2-(3-Chloro-2-fluoro-6-(1H-tetrazol-1-yl)phenyl)-8-methyl-4-oxo-4,6,7,8-tetrahydropyrrolo[1,2-a]pyrimidin-6-yl)-1H-imidazol-5-yl)pyridin-2-yl)carbamate]
		6400	> 10000	COc1cc(-c2cnc([C@@H]3C[C@H](C)c4nc(-c5c(-n6cnnn6)ccc(Cl)c5F)cc(=O)n43)[nH]2)ccn1 (stereo in doubt) [Example 97, (6*S,8*S)-2-(3-Chloro-2-fluoro-6-(1H-tetrazol-1-yl)phenyl)-6-(5-(2-methoxypyridin-4-yl)-1H-imidazol-2-yl)-8-methyl-7,8-dihydropyrrolo[1,2-a]pyrimidin-4(6H)-one]
		> 10000	> 10000	C[C@H]1C[C@H](c2ncc(-c3cn[nH]c3)[nH]2)n2c1nc(-c1c(-n3cnnn3)ccc(Cl)c1F)cc2=O (stereo in doubt) [Example 109, (6*R,8*S)-6-(5-(1H-Pyrazol-4-yl)-1H-imidazol-2-yl)-2-(3-chloro-2-fluoro-6-(1H-tetrazol-1-yl)phenyl)-8-methyl-7,8-dihydropyrrolo[1,2-a]pyrimidin-4(6H)-one]
> 100	463			CC1CC(c2ncc(-c3ccnc(CO)c3F)[nH]2)n2c1nc(-c1c(-n3cnnn3)ccc(Cl)c1F)cc2=O (single isomer, unassigned) [Example 78, (6R*)-2-(3-Chloro-2-fluoro-6-(1H-tetrazol-1-yl)phenyl)-6-(5-(3-fluoro-2-(hydroxymethyl)pyridin-4-yl)-1H-imidazol-2-yl)-8-methyl-7,8-dihydropyrrolo[1,2-a]pyrimidin-4(6H)-one]
247			6000	COC(=O)Nc1ccc(-c2cnc([C@H]3C[C@H](C)c4nc(-c5c(-n6cnnn6)ccc(Cl)c5F)cc(=O)n43)[nH]2)cn1 (stereo in doubt) [Example 115, methyl (5-(2-((6R*,8S*)-2-(3-Chloro-2-fluoro-6-(1H-tetrazol-1-yl)phenyl)-8-methyl-4-oxo-4,6,7,8-tetrahydropyrrolo[1,2-a]pyrimidin-6-yl)-1H-imidazol-5-yl)pyridin-2-yl)carbamate]
0.3	18			CCO[C@@H]1C[C@@H](c2ncc(-c3ccc(N)nc3F)[nH]2)n2c1cc(-c1c(-n3cnnn3)ccc(Cl)c1F)cc2=O [Example 139, (1R,3S)-3-(5-(6-Amino-2-fluoropyridin-3-yl)-1H-imidazol-2-yl)-7-(3-chloro-2-fluoro-6-(1H-tetrazol-1-yl)phenyl)-1-ethoxy-2,3-dihydroindolizin-5(1H)-one]
0.2	18.3			C[C@H]1C[C@@H](c2ncc(-c3ccc(N)nc3Cl)[nH]2)n2c1nc(-c1c(-n3cnnn3)ccc(Cl)c1F)cc2=O (single isomer, unassigned) [Example 142]
56.2	377			C[C@H]1C[C@@H](c2ncc(-c3ncc(N)nc3C(F)(F)F)[nH]2)n2c1nc(-c1c(-n3cnnn3)ccc(Cl)c1F)cc2=O (relative stereo) [Example 83, (6*S,8*S)-6-(5-(5-Amino-3-(trifluoromethyl)pyrazin-2-yl)-1H-imidazol-2-yl)-2-(3-chloro-2-fluoro-6-(1H-tetrazol-1-yl)phenyl)-8-methyl-7,8-dihydropyrrolo[1,2-a]pyrimidin-4(6H)-one]
0.3	3.4			COC(=O)Nc1ccc(-c2cnc([C@@H]3C[C@@H](C)c4nc(-c5c(-n6cnnn6)ccc(Cl)c5F)cc(=O)n43)[nH]2)cc1 (stereo in doubt) [Example 126, Methyl (4-(2-((6*S,8*R)-2-(3-Chloro-2-fluoro-6-(1H-tetrazol-1-yl)phenyl)-8-methyl-4-oxo-4,6,7,8-tetrahydropyrrolo[1,2-a]pyrimidin-6-yl)-1H-imidazol-5-yl)phenyl)carbamate]
0.6	0.9			Nc1nsc2cc(-c3cnc([C@@H]4CC5(CC5)c5nc(-c6c(-n7cnnn7)ccc(Cl)c6F)cc(=O)n54)[nH]3)ccc12 [Example 81, (S)-6′-(5-(3-Aminobenzo[d]isothiazol-6-yl)-1H-imidazol-2-yl)-2′-(3-chloro-2-fluoro-6-(1H-tetrazol-1-yl)phenyl)-6′,7′-dihydro-4′H-spiro[cyclopropane-1,8′-pyrrolo[1,2-a]pyrimidin]-4′-one]
21.4	298			C[C@H]1C[C@H](c2ncc(-c3ncc(N)nc3C3CC3)[nH]2)n2c1nc(-c1c(-n3cnnn3)ccc(Cl)c1F)cc2=O (relative stereo) [Example 90, (6*R,8*S)-6-(5-(5-Amino-3-cyclopropylpyrazin-2-yl)-1H-imidazol-2-yl)-2-(3-chloro-2-fluoro-6-(1H-tetrazol-1-yl)phenyl)-8-methyl-7,8-dihydropyrrolo[1,2-a]pyrimidin-4(6H)-one]
143	135			COc1cc(-c2cnc([C@@H]3C[C@@H](C)c4nc(-c5c(-n6cnnn6)ccc(Cl)c5F)cc(=O)n43)[nH]2)ccn1 (stereo in doubt) [Example 98, (6*S,8*R)-2-(3-Chloro-2-fluoro-6-(1H-tetrazol-1-yl)phenyl)-6-(5-(2-methoxypyridin-4-yl)-1H-imidazol-2-yl)-8-methyl-7,8-dihydropyrrolo[1,2-a]pyrimidin-4(6H)-one]
